Assay results taken from patent US8921576B2, “Spiroindoline compound, and medicinal agent comprising same” (Kowa Company, Ltd., priority 2011, dated 2014).

Target: T1, GST-GK derived from human liver GK (Homo sapiens, UniProt P35557)
T1 construct: made in house; host or cells: Escherichia coli DH5α
T1 sequence (P35557 1-466 isoform P35557-2): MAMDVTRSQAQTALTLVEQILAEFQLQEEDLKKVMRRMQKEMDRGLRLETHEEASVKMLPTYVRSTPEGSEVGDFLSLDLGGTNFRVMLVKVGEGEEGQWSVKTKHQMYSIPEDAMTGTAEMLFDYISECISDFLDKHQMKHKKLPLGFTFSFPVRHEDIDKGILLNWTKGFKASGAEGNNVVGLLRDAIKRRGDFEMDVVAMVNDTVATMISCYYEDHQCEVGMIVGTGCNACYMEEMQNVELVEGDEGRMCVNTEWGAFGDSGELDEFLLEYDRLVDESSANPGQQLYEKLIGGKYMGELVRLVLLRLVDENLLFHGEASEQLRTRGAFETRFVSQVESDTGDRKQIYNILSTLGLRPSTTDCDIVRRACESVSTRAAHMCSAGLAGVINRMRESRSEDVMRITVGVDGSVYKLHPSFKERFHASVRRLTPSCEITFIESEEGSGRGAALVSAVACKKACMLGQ
Experiment: In vitro GK activity measurement test (G6PDH-coupled, OD340)
Type: biochemical
Conditions: test compound 1 μmol/L; glucose 2.5 mmol/L; 25° C.; OD340 slope with compound / without compound; read-out: GK activation rate (%)
Excerpt: cDNA (GenBank Accession No. NM_033507, human glucokinase, variant 2) encoding human liver-type GK polypeptide was cloned by performing a polymerase chain reaction (hereinafter referred to as “PCR”) using a human liver cDNA library (Human liver QUICK-Clone cDNA, TAKARA BIO INC.), and the thus cloned cDNA was then introduced into an expression vector (pGEX-3X, GE Healthcare Japan) for glutathione S transferase (hereinafter referred to as GST) fusion protein expression. The resulting vector was introduced into Escherichia coli (Competent high DH5α, Toyobo Co., Ltd.), and the transformed Escherichia coli was then cultured at 37° C. Thereafter, Isopropyl β-D-1-thiogalactopyranoside (final concentration: 1 mmol/L, Sigma Aldrich Japan) was added to the culture, and the obtained mixture was then cultured at 30° C. for 3 hours. Thereafter, a cell mass was recovered. The recovered cell mass was subjected to freezing-and-thawing, and the resulting cell mass was then suspended in phosphate buffer with final concentration of 1% Triton X-100, followed by disintegration with an ultrasonic disruptor. The homogenate was centrifuged at 33,200 rpm at 4° C. for 1 hour. Thereafter, the supernatant was recovered, and a GST-GK fusion protein was then purified using a glutathione column (GSTrap FF, GE Healthcare Japan). The obtained GST-GK fusion protein was divided into some portions each having a small volume, and the thus divided proteins were then preserved at −80° C.
A GK assay method was carried out at 25° C. at a final incubation volume of 100 μL in a flat-bottom 96-well assay plate. An assay buffer comprised 25 mmol/L Hepes buffer (pH 7.1), 25 mmol/L KCl, 2.5 mmol/L or 10 mmol/L D-glucose, 5 mmol/L ATP, 1 mmol/L nicotinamide adenine dinucleotide phosphate (abbreviated as NADP), 2 mmol/L MgCl2, 1 mmol/L dithiothreitol (DTT), 2 units/mL glucose-6 phosphate dehydrogenase (G6PDH), and 1 μg/mL GST-GK derived from human liver GK. ATP, G6PDH, and NADP were purchased from Roche Diagnostics. […] The thus mixed solution was preincubated in an incubator in which the temperature was controlled at 25° C. for 15 minutes. Subsequently, the reaction was initiated by adding 10 μL of the GST-GK solution to the reaction mixture, resulting in a final concentration of 0.1 μg/mL. After initiation of the reaction, an increase in the optical concentration at 340 nm (OD340) was monitored with a microplate spectrophotometer (Varsamax, Molecular Devices Japan K.K.) every 10 seconds over an incubation period of 10 minutes. An inclination of the OD340 increase was defined as raw data. The GK activating rate was indicated as a numerical value obtained from the expression: (Inclination of OD340 increase by addition of the test compound)/(inclination of OD340 increase without addition of the test compound). The results of the GK activating rate obtained at a test compound concentration of 1 μmol/L under the condition of a glucose concentration of 2.5 mmol/L are shown in the following table.

| activity at 1 µM | SMILES |
| --- | --- |
| 659% | CNC(=O)N1CC[C@@]2(C1)CN(C(=O)Nc1ncc(F)s1)c1ccc(C(F)(F)F)cc12 [Example 487, (R)—N1-(5-Fluorothiazol-2-yl)-N1′-methyl-5-(trifluoromethyl)spiro[indoline-3,3′-pyrrolidine]-1,1′-dicarboxamide] |
| 480% | CS(=O)(=O)CCNC(=O)N1CCC2(C1)CN(C(=O)Nc1ncc(Cl)s1)c1ccc(Cl)cc12 (centres unmarked) [Example 467, 5-chloro-N1-(5-chlorothiazol-2-yl)-N1′-(2-(methylsulfonyl)ethyl)spiro[indoline-3,3′-pyrrolidine]-1,1′-dicarboxamide] |
| 636% | CNC(=O)N1CC[C@@]2(C1)CN(C(=O)Nc1ncc(OC)s1)c1ccc(Cl)cc12 [Example 380, (R)-5-Chloro-N1-(5-methoxythiazol-2-yl)-N1′-methylspiro[indoline-3,3′-pyrrolidine]-1,1′-dicarboxamide] |
| 528% | CNC(=O)N1CC[C@@]2(C1)CN(C(=O)Nc1ncc(Cl)s1)c1ccc(C#N)cc12 [Example 376, (R)—N1-(5-Chlorothiazol-2-yl)-5-cyano-N1′-methylspiro[indoline-3,3′-pyrrolidine]-1,1′-dicarboxamide] |
| 465% | CNC(=O)N1CC[C@@]2(C1)CN(C(=O)Nc1ncc(OC)s1)c1ccc(C#N)cc12 [Example 381, (R)-5-Cyano-N1-(5-methoxythiazol-2-yl)-N1′-methylspiro[indoline-3,3′-pyrrolidine]-1,1′-dicarboxamide] |
| 506% | COc1cnc(NC(=O)N2CC3(CCN(C(C)=O)C3)c3cc(C(F)(F)F)ccc32)s1 (centres unmarked) [Example 437, 1′-Acetyl-N-(5-methoxythiazol-2-yl)-5-(trifluoromethyl)spiro[indoline-3,3′-pyrrolidine]-1-carboxamide] |
| 520% | CNC(=O)N1CCC2(C1)CN(C(=O)Nc1ncc(OC)s1)c1ccc(C(F)(F)F)cc12 (centres unmarked) [Example 439, N1-(5-Methoxythiazol-2-yl)-N1′-methyl-5-(trifluoromethyl)spiro[indoline-3,3′-pyrrolidine]-1,1′-dicarboxamide] |
| 613% | CNC(=O)N1CCC2(C1)CN(C(=O)Nc1ncc(Cl)s1)c1ccc(C(F)(F)F)cc12 (centres unmarked) [Example 432, N1-(5-Chlorothiazol-2-yl)-N1′-methyl-5-(trifluoromethyl)spiro[indoline-3,3′-pyrrolidine]-1,1′-dicarboxamide] |
| 606% | COC(=O)NCCCSc1cnc(NC(=O)N2CC3(CCN(C(=O)OC)C3)c3cc(Cl)ccc32)s1 (centres unmarked) [Example 455, methyl 5-chloro-1-((5-((3-((methoxycarbonyl)amino)propyl)thio)thiazol-2-yl)carbamoyl)spiro[indoline-3,3′-pyrrolidine]-1′-carboxylate] |
| 477% | CONC(=O)N1CCC2(C1)CN(C(=O)Nc1ncc(Cl)s1)c1ccc(Cl)cc12 (centres unmarked) [Example 480, 5-Chloro-N1-(5-chlorothiazol-2-yl)-N1′-methoxyspiro[indoline-3,3′-pyrrolidine]-1,1′-dicarboxamide] |
| 470% | O=C(CCCNC(=O)N1CCC2(C1)CN(C(=O)Nc1ncc(Cl)s1)c1ccc(Cl)cc12)N1CCC1 (centres unmarked) [Example 471, N1′-(4-(Azetidin-1-yl)-4-oxobutyl)-5-chloro-N1-(5-chlorothiazol-2-yl)spiro[indoline-3,3′-pyrrolidine]-1,1′-dicarboxamide] |

Further lines, the compound ahead of its results:

| SMILES | activity at 1 µM |
| --- | --- |
| CN(C)CCN(Cc1ccccc1)S(=O)(=O)c1ccc2c(c1)C1(CCN(C=O)C1)CN2C(=O)Nc1ncc(F)s1 (centres unmarked) [Example 308, 5-(N-benzyl-N-(2-(dimethylamino)ethyl)sulfamoyl)-N-(5-fluorothiazol-2-yl)-1′-formylspiro[indoline-3,3′-pyrrolidine]-1-carboxamide] | 504% |
| COC(=O)N1CC[C@@]2(C1)CN(C(=O)Nc1ncc(SCC(=O)O)s1)c1ccc(Br)cc12 [Example 336, (S)-2-((2-(5-bromo-1′-(methoxycarbonyl)spiro[indoline-3,3′-pyrrolidin]-1-ylcarboxamido)thiazol-5-yl)thio)acetic acid] | 451% |
| COC(=O)N1CCC2(C1)CN(C(=O)Nc1ncc(SCCCN(C)C)s1)c1ccc(Cl)cc12 (centres unmarked) [Example 180, Methyl 5-chloro-1-((5-((3-(dimethylamino)propyl)thio)thiazol-2-yl)carbamoyl)spiro[indoline-3,3′-pyrrolidine]-1′-carboxylate] | 442% |
| CC(=O)OCC(=O)N1CC[C@@]2(C1)CN(C(=O)Nc1ncc(Cl)s1)c1ccc(Cl)cc12 [Example 52, (R)-2-(5-chloro-1-((5-chlorothiazol-2-yl)carbamoyl)spiro[indoline-3,3′-pyrrolidin]-1′-yl)-2-oxoethyl acetate] | 531% |
| COC(=O)N1CC[C@@]2(C1)CN(C(=O)Nc1ncc(Cl)s1)c1ccc(Br)cc12 [Example 320, (S)-methyl 5-bromo-1-((5-chlorothiazol-2-yl)carbamoyl)spiro[indoline-3,3′-pyrrolidin]-1′-ylcarboxylate] | 818% |
| COC(=O)N1CCC2(C1)CN(C(=O)Nc1ncc(SCCCNS(=O)(=O)C3CC3)s1)c1ccc(Cl)cc12 (centres unmarked) [Example 179, methyl 5-chloro-1-((5-((3-(cyclopropanesulfonamido)propyl)thio)thiazol-2-yl)carbamoyl)spiro[indoline-3,3′-pyrrolidine]-1′-carboxylate] | 669% |
| COCCN(CC1CC1)S(=O)(=O)c1ccc2c(c1)C1(CCN(C(C)=O)C1)CN2C(=O)Nc1nc2ccc(OC)nc2s1 (centres unmarked) [Example 300, 1′-Acetyl-5-(N-(cyclopropylmethyl)-N-(2-methoxyethyl)sulfamoyl)-N-(5-methoxythiazolo[5,4-b]pyridin-2-yl)spiro[indoline-3,3′-pyrrolidine]-1-carboxamide] | 689% |
| COCCCSc1cnc(NC(=O)N2CC3(CCN(C(=O)OC)C3)c3cc(Cl)ccc32)s1 (centres unmarked) [Example 162, Methyl 5-chloro-1-((5-((3-methoxypropyl)thio)thiazol-2-yl)carbamoyl)spiro[indoline-3,3′-pyrrolidine]-1′-carboxylate] | 484% |
| COCCN(Cc1ccccc1)S(=O)(=O)c1ccc2c(c1)C1(CCN(C(C)=O)C1)CN2C(=O)Nc1nc2ccc(OC)nc2s1 (centres unmarked) [Example 288, 1′-Acetyl-5-(N-benzyl-N-(2-methoxyethyl)sulfamoyl)-N-(5-methoxythiazolo[5,4-b]pyridin-2-yl)spiro[indoline-3,3′-pyrrolidine]-1-carboxamide] | 793% |
| CNC(=O)CCSc1cnc(NC(=O)N2CC3(CCN(C(=O)OC)C3)c3cc(Cl)ccc32)s1 (centres unmarked) [Example 151, methyl 5-chloro-1-((5-((3-(methylamino)-3-oxopropyl)thio)thiazol-2-yl)carbamoyl)spiro[indoline-3,3′-pyrrolidine]-1′-carboxylate] | 656% |
| COc1ccc2nc(NC(=O)N3CC4(CCN(C(C)=O)C4)c4cc(S(=O)(=O)NCc5ccccc5F)ccc43)sc2n1 (centres unmarked) [Example 269, 1′-Acetyl-5-(N-(2-fluorobenzyl)sulfamoyl)-N-(5-methoxythiazolo[5,4-b]pyridin-2-yl)spiro[indoline-3,3′-pyrrolidine]-1-carboxamide] | 640% |
| COC(=O)N1CCC2(C1)CN(C(=O)Nc1nc3ccc(OC)nc3s1)c1ccc(S(=O)(=O)N(CCC(=O)O)Cc3ccccc3)cc12 (centres unmarked) [Example 307, 3-(N-benzyl-1′-(methoxycarbonyl)-1-((5-methoxythiazolo[5,4-b]pyridin-2-yl)carbamoyl)spiro[indoline-3,3′-pyrrolidin]-5-ylsulfonamido)propionic acid] | 887% |
